Each molecule was assayed against T1, Recombinant human CETP (Homo sapiens, UniProt P11597) (assay: CETP Scintillation Proximity Assay). Details: 3H-cholesteryl ester transfer from human HDL donor to biotin labelled LDL, over night at room temperature; read-out: IC50 values for CETP inhibitory activity.
T1 construct: made in house; host or cells: CHO cells (secreted into conditioned medium)
T1 sequence (P11597 18-493): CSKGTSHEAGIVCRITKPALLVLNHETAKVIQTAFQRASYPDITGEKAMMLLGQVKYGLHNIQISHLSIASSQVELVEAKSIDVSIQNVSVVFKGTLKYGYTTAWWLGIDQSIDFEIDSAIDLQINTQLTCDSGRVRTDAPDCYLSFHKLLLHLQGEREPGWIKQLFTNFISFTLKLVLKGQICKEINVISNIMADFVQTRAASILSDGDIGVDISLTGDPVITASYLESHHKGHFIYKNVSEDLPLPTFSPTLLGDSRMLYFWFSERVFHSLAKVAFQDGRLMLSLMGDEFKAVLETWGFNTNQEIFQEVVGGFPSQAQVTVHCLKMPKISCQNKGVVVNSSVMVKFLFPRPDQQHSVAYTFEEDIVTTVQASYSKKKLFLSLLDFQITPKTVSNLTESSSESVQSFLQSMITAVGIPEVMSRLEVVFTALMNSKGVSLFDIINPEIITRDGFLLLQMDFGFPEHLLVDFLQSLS
Type: biochemical
Description: CETP Scintillation Proximity Assay
Recombinant human CETP is partially purified from medium conditioned by CETP expressing CHO cells. In a 96 well homogeneous assay format CETP transfers ^3H-labelled cholesteryl esters from human HDL donor particles to biotin labelled LDL particles. Following over night incubation at room temperature the reaction is stopped by addition of streptavidin-coupled scintillation proximity assay (SPA) beads. These beads captured the biotinylated acceptor particles and the radioactivity is measured. The assay system is purchased and performed according to the manufacturer's recommendations (GE Healthcare).
Inhibitory activity of compounds is determined as percentage of positive control activity containing CETP together with donor and acceptor particles. Background activity is determined by adding buffer instead of CETP. Serial dilution of compound in buffer containing 10% DMSO is performed in order to determine the IC50 values.

`CC1(C)Cc2nc3c(c(C4CCCC4)c2[C@@H](O)C1)[C@H](c1ccc(C(F)(F)F)cc1)OC31CCCCC1` (single isomer, unassigned) [1 (8), (1′S,8′S)-9′-Cyclopentyl-6′,6′-dimethyl-1′-(4-(trifluoromethyl)phenyl)-5′,6′,7′,8′-tetrahydro-1′H-spiro[cyclohexane-1,3′-furo[3,4-b]quinolin]-8′-ol] and `CC1(C)Cc2nc3c(c(C4CCCC4)c2[C@@H](O)C1)[C@@H](c1ccc(C(F)(F)F)cc1)OC31CCCCC1` (single isomer, unassigned) [1 (9), (1′R,8′S)-9′-Cyclopentyl-6′,6′-dimethyl-1′-(4-(trifluoromethyl)phenyl)-5′,6′,7′,8′-tetrahydro-1′H-spiro[cyclohexane-1,3′-furo[3,4-b]quinolin]-8′-ol] cannot be ordered by IC50: under 1000 nM for the first, under 20000 nM for the second.

`CC1(C)Cc2nc3c(c(C4CCCC4)c2[C@@H](O)C1)[C@H](c1ccc(C(F)(F)F)cc1)OC31CCCC1` (single isomer, unassigned) [1 (10), (1′S,8′S)-9′-Cyclopentyl-6′,6′-dimethyl-1′-(4-(trifluoromethyl)phenyl)-5′,6′,7′,8′-tetrahydro-1′H-spiro[cyclopentane-1,3′-furo[3,4-b]quinolin]-8′-ol] and `CC1(C)Cc2nc3c(c(C4CCCC4)c2C(O)C1)C(c1ccc(C(F)(F)F)cc1)OC3(C)C` (single isomer, unassigned) [Example 1 (4), 9-Cyclopentyl-3,3,6,6-tetramethyl-1-(4-trifluoromethyl-phenyl)-1,3,5,6,7,8-hexahydro-furo[3,4-b]quinolin-8-ol] cannot be ordered by IC50: under 1000 nM for the first, under 5000 nM for the second.

`CC1(C)Cc2nc3c(c(C4CCCC4)c2[C@@H](O)C1)C(c1ccc(C(F)(F)F)cc1)OC3` (single isomer, unassigned) [Diastereomer 1 of Example 1 (3)] and `CC1OC(c2ccc(C(F)(F)F)cc2)c2c1nc1c(c2C2CCCC2)[C@@H](O)CC(C)(C)C1` (single isomer, unassigned) [Diastereomer 3 of Example 1 (2)] cannot be ordered by IC50: under 20000 nM for the first, under 1000 nM for the second.

`CC1OC(c2ccc(C(F)(F)F)cc2)c2c1nc1c(c2C2CCCC2)[C@@H](O)CC(C)(C)C1` (single isomer, unassigned) [Diastereomer 4 of Example 1 (2)] and `CC1OC(c2ccc(C(F)(F)F)cc2)c2c1nc1c(c2C2CCCCC2)[C@@H](O)CC(C)(C)C1` (single isomer, unassigned) [Example 1 (7)] cannot be ordered by IC50: under 2000 nM for the first, under 1000 nM for the second.

`CC1OC(c2ccc(C(F)(F)F)cc2)c2c1nc1c(c2C2CCCC2)[C@@H](O)CC(C)(C)C1` (single isomer, unassigned) [Example 1 (1)] and `CC1OC(c2ccc(C(C)(C)C)cc2)c2c1nc1c(c2C2CCCCC2)[C@@H](O)CC(C)(C)C1` (stereo partly drawn) [Example 2, 8-(S)-1-(4-tert-Butyl-phenyl)-9-cyclohexyl-3,6,6-trimethyl-1,3,5,6,7,8-hexahydro-furo[3,4b]quinolin-8-ol] cannot be ordered by IC50: under 2000 nM for the first, under 5000 nM for the second.

`CC1(C)Cc2nc3c(c(C4CCCC4)c2[C@@H](O)C1)C(c1ccc(C(F)(F)F)cc1)OC3(C)C` (single isomer, unassigned) [Example 1 (5)] and `CC1OC(c2ccc(C(F)(F)F)cc2)c2c1nc1c(c2C2CCCC2)[C@@H](O)CC(C)(C)C1` (single isomer, unassigned) [Example 1] cannot be ordered by IC50: under 1000 nM for the first, under 2000 nM for the second.

`CC1(C)Cc2nc3c(c(C4CCCC4)c2[C@@H](O)C1)C(c1ccc(C(F)(F)F)cc1)OC3(C)C` (single isomer, unassigned) [Example 1 (6)] gave an IC50 of under 20000 nM.

Same assay, conditions: comparison among diastereomers of the same structure

In the case of `CC1OC(c2ccc(C(F)(F)F)cc2)c2c1nc1c(c2C2CCCC2)[C@@H](O)CC(C)(C)C1` (single isomer, unassigned) [Diastereomer 3 of Example 1 (2)], the “CETP inhibitory potency compared to the other diastereomers” value is reported as “higher CETP inhibitory potency as compared to the other diastereomers”.
`CC1(C)Cc2nc3c(c(C4CCCC4)c2[C@@H](O)C1)C(c1ccc(C(F)(F)F)cc1)OC3(C)C` (single isomer, unassigned) [Example 1 (5)] was tested, and the “CETP inhibitory potency compared to the other diastereomers” value was “higher CETP inhibitory potency as compared to the other diastereomer”.
